# Laboratory results taken from patent US20140004192A1, “PHARMACEUTICAL FORMULATIONS OF INDIBULIN AND USES THEREOF” (Ziopharm Oncology, Inc., priority 2012, published 2014).
# Where two headings read alike, the source gives them in different places.
# Tests used:
# [1] = Membrane-permeation test; type: physicochemical; settings: feed MFDS, 37° C.
# Description: The 10% A HPMCAS-H(HPMCAS high grade), 15% A HPMCAS-H, 20% A HPMCAS-H, 25% A HPMCAS-H, 25% A HPMCAS-M (HPMCAS medium grade) and 50% A HPMCAS-M SDD formulations were also evaluated in a membrane-permeation test at 37° C. in a temperature-controlled box. Test procedures were described, for example, in U.S. Pat. No. 7,611,630. For example, a membrane-permeation test of 10% A HPMCAS-H indibulin SDD was performed using the following procedures: • 1. Accurately weigh 1 mgA (10 mg of 10% A:HPMCAS-H SDD) into the outer-glass reservoir of the test apparatus. All samples are prepared in duplicates. • 2. Add 5 mL MFDS and start the timer. • 3. Cap each reservoir and vortex at medium setting for 1 minute. Stir at 100 rpm. • 4. After 9 minutes of addition of MFDS, add 5 mL of 80/20 (wt/wt) […]/Decane permeate to the inside of the membrane cells. • 5. After 1 minute (at 10 minutes) place a cell containing the permeate solution into the outer reservoir holding the feed/drug solution. Take a O-minute time point. Tilt the entire apparatus at a 45° angle to ensure that no air bubbles are trapped under the membrane. • 6. Place apparatus back on stir plate at 100 rpm. • 7. […]
# This test assessed the rate of solubilized drug indibulin that passed through a synthetic membrane from aqueous MFDS to an aqueous immiscible organic sink solution. […]
# [2] = Rat pharmacokinetic study, second study (dose response); type: in vivo, rats; settings: plasma, po; for AUC(0-t) / Cmax / Tmax: Second Study; for concentration at 0 h / concentration at 0.5 h / concentration at 1 h / concentration at 2 h / concentration at 4 h / concentration at 6 h / concentration at 10 h: second study, read-out: plasma indibulin
# Description: The second study was designed to determine the dose response of indibulin plasma concentration with the 10% A SDD formulation. In general, 10% A SDD was administered p.o. at 10, 15 and 20 mg/kg and plasma indibulin concentrations were determined at several time points.
# All rats used in the second study were fasted 12 hours prior to dose, and food was returned 4 hours post dose. Indibulin in crystalline form was suspended in 0.5% Methocel A at 10 mg/kg, 15 mg/kg and 20 mg/kg by vortexing and sonicating. The indibulin SDD formulations were made by combining 10% active indibulin SDD at 10 mg/kg, 15 mg/kg and 20 mg/kg in a mortar with 0.5% Methocel A and using a pestle to gradually mix in to solution. There were six rats per group, all animals were weighed and the dose volume calculated so that each rat received the test article orally at a volume of 10 mL/kg. The first three rats in each group were bled at […], 2, and 6 hours post dose; the remaining three rats in each group were bled at 1, 4, and 10 hours post dose. For blood collection at all time points, all animals were anesthetized with an inhalation of 4% isoflurane and 1.5% oxygen; once it was determined that the animal was adequately anesthetized (no reaction to physical stimulation) using a capillary tube the orbital venous plexus was punctured and a volume of 1 mL of blood was collected in to a sodium heparin tube. Once the blood was collected the sodium heparin tube was inverted ten times, and placed on ice until centrifuged for 10 minutes at 2510 rpm. The plasma was decanted into labeled Eppendorfs and stored at −80° C. until analyzed by HPLC with MS/MS Detection. All data were acquired using Applied Biosystems/MDS-Sciex Analyst Version 1.5; processed, and reported using Watson Version 7.3.0.01TM, Thermo Fisher Scientific, Inc.; and are summarized in FIG. 13 and FIG. 14.
# [3] = cited from earlier work
smiles,measurement,setting,value
"O=C(Nc1ccncc1)C(=O)c1cn(Cc2ccc(Cl)cc2)c2ccccc12 [Bulk Crystalline Drug, indibulin]",Average Flux,[1],0.10 μgA/cm^2 × min
same,AUC(0-t),[2]; rat p.o. 10 mg/kg (60 mg/m^2),48 ng·h/mL
same,Cmax,[2]; rat p.o. 10 mg/kg (60 mg/m^2),8.6 ng/mL
same,Tmax,[2]; rat p.o. 10 mg/kg (60 mg/m^2),2 h
same,AUC(0-t),[2]; rat p.o. 15 mg/kg (90 mg/m^2),146 ng·h/mL
same,Cmax,[2]; rat p.o. 15 mg/kg (90 mg/m^2),24 ng/mL
same,Tmax,[2]; rat p.o. 15 mg/kg (90 mg/m^2),4 h
same,AUC(0-t),[2]; rat p.o. 20 mg/kg (120 mg/m^2),110 ng·h/mL
same,Cmax,[2]; rat p.o. 20 mg/kg (120 mg/m^2),21 ng/mL
same,Tmax,[2]; rat p.o. 20 mg/kg (120 mg/m^2),4 h
same,concentration at 0 h,[2]; rat p.o. 10 mg/kg,0 ng/mL
same,concentration at 0.5 h,[2]; rat p.o. 10 mg/kg,2 ng/mL
same,concentration at 1 h,[2]; rat p.o. 10 mg/kg,4 ng/mL
same,concentration at 2 h,[2]; rat p.o. 10 mg/kg,9 ng/mL
same,concentration at 4 h,[2]; rat p.o. 10 mg/kg,4 ng/mL
same,concentration at 6 h,[2]; rat p.o. 10 mg/kg,7 ng/mL
same,concentration at 10 h,[2]; rat p.o. 10 mg/kg,2 ng/mL
same,concentration at 0 h,[2]; rat p.o. 15 mg/kg,0 ng/mL
same,concentration at 0.5 h,[2]; rat p.o. 15 mg/kg,10 ng/mL
same,concentration at 1 h,[2]; rat p.o. 15 mg/kg,17 ng/mL
same,concentration at 2 h,[2]; rat p.o. 15 mg/kg,17 ng/mL
same,concentration at 4 h,[2]; rat p.o. 15 mg/kg,24 ng/mL
same,concentration at 6 h,[2]; rat p.o. 15 mg/kg,7 ng/mL
same,concentration at 10 h,[2]; rat p.o. 15 mg/kg,19 ng/mL
same,concentration at 0 h,[2]; rat p.o. 20 mg/kg,0 ng/mL
same,concentration at 0.5 h,[2]; rat p.o. 20 mg/kg,9 ng/mL
same,concentration at 1 h,[2]; rat p.o. 20 mg/kg,12 ng/mL
same,concentration at 2 h,[2]; rat p.o. 20 mg/kg,14 ng/mL
same,concentration at 4 h,[2]; rat p.o. 20 mg/kg,21 ng/mL
same,concentration at 6 h,[2]; rat p.o. 20 mg/kg,7 ng/mL
same,concentration at 10 h,[2]; rat p.o. 20 mg/kg,6 ng/mL
same,"solubility in water, methanol, ethanol or 2-propanol",[3],practically insoluble
